Results reported in article PMC8273890, “Development of [^18F]AldoView as the First Highly Selective Aldosterone Synthase PET Tracer for Imaging of Primary Hyperaldosteronism” (Journal of Medicinal Chemistry, 2021).
Entries after “also recorded” stand apart in the source; their conditions may differ.

Columns and labels:
human CYP11B2 = assay: Inhibition of human CYP11B2 (aldosterone synthase), literature values; assay type: biochemical; conditions: human isoforms
[1] = Ex vivo biodistribution in mice (gamma counting); parameters: species or system female BALB/c mice
Description: [^18F]AldoView (6.6 ± 1.9 MBq, formulated in saline containing 5% ethanol) was administered intravenously into the tail vein of female wild-type BALB/c mice (n = 3–4 per time point) without anesthesia. At designated time points (15, 30, 60, and 120 min postinjection), animals were anesthetized with isoflurane (4% v/v in oxygen) and the blood was taken by cardiac puncture. Mice were subsequently sacrificed by cervical dislocation. The organs of interest were sampled and weighed, and the radioactivity content was measured by automated gamma counting (PerkinElmer Wizard^2). Results were expressed as % ID/g bodyweight.

CYP11B2 = target: T1, CYP11B2 (Homo sapiens, UniProt P19099); assay: Quantitative phosphorimaging (in vitro autoradiography) in human adrenal tissue sections; assay type: binding; conditions: for NSB (non-specific binding): with 25 μM AldoView
T1 construct: from tissue
T1 sequence (P19099 25-503): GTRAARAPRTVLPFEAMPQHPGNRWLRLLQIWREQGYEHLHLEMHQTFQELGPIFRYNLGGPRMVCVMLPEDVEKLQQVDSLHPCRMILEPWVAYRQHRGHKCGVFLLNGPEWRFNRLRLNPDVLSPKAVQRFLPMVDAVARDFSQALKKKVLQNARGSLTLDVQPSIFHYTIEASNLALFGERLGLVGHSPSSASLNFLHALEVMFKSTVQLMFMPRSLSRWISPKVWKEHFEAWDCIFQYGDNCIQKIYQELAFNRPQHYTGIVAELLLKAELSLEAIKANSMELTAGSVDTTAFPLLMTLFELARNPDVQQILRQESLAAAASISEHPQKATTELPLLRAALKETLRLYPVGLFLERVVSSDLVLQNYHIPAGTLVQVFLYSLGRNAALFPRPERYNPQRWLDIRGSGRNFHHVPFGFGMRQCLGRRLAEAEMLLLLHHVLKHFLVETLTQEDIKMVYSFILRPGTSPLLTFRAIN
Text: Adrenal surgical specimens were obtained from patients with Conn’s disease, Cushing’s disease, pheochromocytoma, and adrenal tumors, who had consented to the use of their tissue for research applications. Ethical approval was obtained from the UK Multicentre Research Ethics Committee (06/Q0104/133). Following routine adrenalectomy, surgical specimens were immediately flash frozen using a slurry of isopentane and dry ice. Cryosections (20 μm) obtained from the frozen tissue blocks were mounted on lysine-coated microscope slides and stored at −80 °C.
Thawed tissue sections on microscopic slides were dipped in pentane for 5 s to degrease the tissue. This step was required to avoid nonspecific binding (NSB), in particular to medullar fat. Tissue sections were subsequently rehydrated in tris-buffered saline (TBS; pH = 7.5) for 30 min and subsequently incubated with a solution of [^18F]AldoView in TBS for 60 min (1 mL per slide). For determination of the total binding (TB), [^18F]AldoView was diluted with TBS to a concentration of 2 MBq/mL. For the determination of NSB, a solution of the nonradioactive reference compound in ethanol (3.5 mM) was added to a solution of [^18F]AldoView in TBS and diluted to give a final AldoView concentration of 25 μM and a final [^18F]AldoView concentration of 2 MBq/mL. After incubation, unbound [^18F]AldoView was removed by washing the sections in ice-cold TBS (three times for 5 min) and water (1 min). Internal standards were prepared by serial dilution of the [^18F]AldoView solution used for determination of the TB. Tissue sections and internal standards absorbed on filter paper were left to air-dry and subsequently exposed to a phosphor screen (BAS-IP MS; GE Healthcare) overnight. Phosphorimaging was performed on a Typhoon Trio scanner (GE Healthcare). All phosphorimaging experiments were performed in at least three adjacent tissue sections per case, tissue block, and experimental condition (TB, NSB). Quantification of phosphor images was performed using the analysis software ImageJ (version 1.48).[28] Determination of TB and NSB (in kBq/cm^2; Table S1) was based on correlation curves generated from the internal standards. The specific [^18F]AldoView binding was calculated as the difference between TB and NSB.

[2] = biodistribution, 15 min postinjection
[3] = biodistribution, 30 min postinjection (peak)
[4] = specimen 1b (high), case 1, PHA
[5] = specimen 2b (high), case 2, PHA
[6] = specimen 2c (high), case 2, PHA
[7] = specimen 3b (high), case 3, PHA
[8] = specimen 6a, case 6, pheochromocytoma
[9] = specimen 6b, case 6, pheochromocytoma
[10] = specimen 7a, case 7, adrenal tumor

SMILES: Fc1cc2nc(-c3cncc([18F])c3)n(C3CC3)c2cc1F [[^18F]AldoView]
- hCYP11B2 selectivity (B2/B1 ratio) (human CYP11B2): 93
- ratio between tracer uptake in adrenals and kidneys ([1]; 15 min postinjection): 1.2
- activity level in kidneys [1, 2]: 5.2 ± 3.5 % ID/g
- activity level in liver [1, 2]: 11.8 ± 4.1 % ID/g
- activity level in small intestines [1, 2]: 4.3 ± 4.7 % ID/g
- activity level in adrenals ([1]; biodistribution, 15 min postinjection, n = 2): 6.1 % ID/g
- activity level in adrenals ([1]; biodistribution, 30 min postinjection): 4.0 ± 2.5 % ID/g
- activity level in kidneys [1, 3]: 5.7 ± 2.9 % ID/g
- activity level in liver [1, 3]: 12.4 ± 5.9 % ID/g
- activity level in adrenals ([1]; biodistribution, 60 min postinjection): 1.8 ± 1.1 % ID/g
- tracer binding in specimens from control subjects (CYP11B2; n = 3): 2.6 ± 1.8 kBq/cm^2
- tracer binding in CYP11B2-negative areas in specimens from patients with PHA (CYP11B2; n = 4): 3.2 ± 1.1 kBq/cm^2
- SB (specific binding) (CYP11B2; specimen 1a, case 1, PHA): 19.7 kBq/cm2
- TB (total binding) (CYP11B2; specimen 1a, case 1, PHA): 20.1 kBq/cm2
- NSB (non-specific binding) (CYP11B2; specimen 1a, case 1, PHA): 0.4 kBq/cm2
- SB (specific binding) (CYP11B2; [4]): 8.6 kBq/cm2
- TB (total binding) (CYP11B2; [4]): 17.9 kBq/cm2
- NSB (non-specific binding) (CYP11B2; [4]): 9.3 kBq/cm2
- SB (specific binding) (CYP11B2; specimen 1b (low), case 1, PHA): 4.8 kBq/cm2
- TB (total binding) (CYP11B2; specimen 1b (low), case 1, PHA): 5.6 kBq/cm2
- NSB (non-specific binding) (CYP11B2; specimen 1b (low), case 1, PHA): 0.9 kBq/cm2
- SB (specific binding) (CYP11B2; specimen 2a, case 2, PHA): 2.5 kBq/cm2
- TB (total binding) (CYP11B2; specimen 2a, case 2, PHA): 2.8 kBq/cm2
- NSB (non-specific binding) (CYP11B2; specimen 2a, case 2, PHA): 0.3 kBq/cm2
- SB (specific binding) (CYP11B2; [5]): 18.9 kBq/cm2
- TB (total binding) (CYP11B2; [5]): 20.2 kBq/cm2
- NSB (non-specific binding) (CYP11B2; [5]): 1.3 kBq/cm2
- SB (specific binding) (CYP11B2; specimen 2b (low), case 2, PHA): 2.1 kBq/cm2
- TB (total binding) (CYP11B2; specimen 2b (low), case 2, PHA): 2.4 kBq/cm2
- NSB (non-specific binding) (CYP11B2; specimen 2b (low), case 2, PHA): 0.3 kBq/cm2
- SB (specific binding) (CYP11B2; [6]): 19.1 kBq/cm2
- TB (total binding) (CYP11B2; [6]): 20.0 kBq/cm2
- NSB (non-specific binding) (CYP11B2; [6]): 1.0 kBq/cm2
- SB (specific binding) (CYP11B2; specimen 2c (low), case 2, PHA): 3.0 kBq/cm2
- TB (total binding) (CYP11B2; specimen 2c (low), case 2, PHA): 3.3 kBq/cm2
- NSB (non-specific binding) (CYP11B2; specimen 2c (low), case 2, PHA): 0.3 kBq/cm2
- SB (specific binding) (CYP11B2; specimen 3a, case 3, PHA): 6.8 kBq/cm2
- TB (total binding) (CYP11B2; specimen 3a, case 3, PHA): 7.6 kBq/cm2
- NSB (non-specific binding) (CYP11B2; specimen 3a, case 3, PHA): 0.7 kBq/cm2
- SB (specific binding) (CYP11B2; [7]): 10.4 kBq/cm2
- TB (total binding) (CYP11B2; [7]): 15.5 kBq/cm2
- NSB (non-specific binding) (CYP11B2; [7]): 5.1 kBq/cm2
- SB (specific binding) (CYP11B2; specimen 3b (low), case 3, PHA): 3.0 kBq/cm2
- TB (total binding) (CYP11B2; specimen 3b (low), case 3, PHA): 4.3 kBq/cm2
- NSB (non-specific binding) (CYP11B2; specimen 3b (low), case 3, PHA): 1.2 kBq/cm2
- SB (specific binding) (CYP11B2; specimen 4a, case 4, PHA): 3.6 kBq/cm2
- TB (total binding) (CYP11B2; specimen 4a, case 4, PHA): 4.2 kBq/cm2
- NSB (non-specific binding) (CYP11B2; specimen 4a, case 4, PHA): 0.6 kBq/cm2
- SB (specific binding) (CYP11B2; specimen 4b, case 4, PHA): 16.5 kBq/cm2
- TB (total binding) (CYP11B2; specimen 4b, case 4, PHA): 18.4 kBq/cm2
- NSB (non-specific binding) (CYP11B2; specimen 4b, case 4, PHA): 1.9 kBq/cm2
- SB (specific binding) (CYP11B2; specimen 5a, case 5, PHA): 5.1 kBq/cm2
- TB (total binding) (CYP11B2; specimen 5a, case 5, PHA): 5.9 kBq/cm2
- NSB (non-specific binding) (CYP11B2; specimen 5a, case 5, PHA): 0.8 kBq/cm2
- SB (specific binding) (CYP11B2; specimen 5b, case 5, PHA): 4.2 kBq/cm2
- TB (total binding) (CYP11B2; specimen 5b, case 5, PHA): 5.1 kBq/cm2
- NSB (non-specific binding) (CYP11B2; specimen 5b, case 5, PHA): 0.9 kBq/cm2
- SB (specific binding) (CYP11B2; specimen 5c, case 5, PHA): 3.5 kBq/cm2
- TB (total binding) (CYP11B2; specimen 5c, case 5, PHA): 4.5 kBq/cm2
- NSB (non-specific binding) (CYP11B2; specimen 5c, case 5, PHA): 1.0 kBq/cm2
- SB (specific binding) (CYP11B2; [8]): < LOQ; also recorded: limit of quantification
- TB (total binding) (CYP11B2; [8]): < LOQ
- NSB (non-specific binding) (CYP11B2; [8]): < LOQ
- SB (specific binding) (CYP11B2; [9]): 4.0 kBq/cm2
- TB (total binding) (CYP11B2; [9]): 5.3 kBq/cm2
- NSB (non-specific binding) (CYP11B2; [9]): 1.3 kBq/cm2
- SB (specific binding) (CYP11B2; [10]): 0.5 kBq/cm2
- TB (total binding) (CYP11B2; [10]): 1.7 kBq/cm2
- NSB (non-specific binding) (CYP11B2; [10]): 1.2 kBq/cm2
- SB (specific binding) (CYP11B2; specimen 8a, case 8, Cushing's): 3.2 kBq/cm2
- TB (total binding) (CYP11B2; specimen 8a, case 8, Cushing's): 3.7 kBq/cm2
- NSB (non-specific binding) (CYP11B2; specimen 8a, case 8, Cushing's): 0.5 kBq/cm2
